According to US7829662B2, “Method of treating apoptosis and compositions thereof” (Dana Farber Cancer Institute, Inc., priority 2001, dated 2010):
Entries after “also recorded” stand apart in the source; their conditions may differ. Peptide text beside a SMILES is read from it. * marks the point of attachment. Cbz = O=C(OCc1ccccc1)*; CH2F = FC*

What was measured:
wt mitochondria [1] = test: Ascorbate/TMPD-driven respiration assay; type: biochemical, Balb/cJ mice; conditions: 200 nmol Ca^2+ × mg protein^−1
Protocol: Symbols used are detailed in the legend. […] (a), no additions. […] Arrow, 6 mM ascorbate-Tris and 300 μM TMPD were added. Assays were developed to assess the amount of cytochrome c freely available in the IMS (FIGS. 3A, B). […] After the indicated time, 400 pmol CCCP and 1 nmol antimycin A×mg protein^−1 were added, and the reaction transferred to a Clark type oxygen electrode chamber. Final volume was 1 ml, 25° C. After 2 min, 6 mM ascorbate was added, followed after a further 3 min by 300 μM TMPD. The ascorbate-driven O2 consumption rate over the total TMPD-driven rate is plotted as a percentage of the ratio in the untreated mitochondria.

mitochondria [2] = test: Mitochondrial swelling by side scatter at 545 nm; type: biochemical, Balb/cJ mice; conditions: 400 μM Ca^2+, positive control
Protocol: tBID was evaluated to determine if it causes any swelling or depolarization that might reflect an opening of the PTP. Swelling of 0.5 mg/ml mitochondria incubated in EB was monitored by changes in side scatter at 545±2.5 nm using LS-50B spectrofluorimeter equipped with magnetic stirring at 25° C. Membrane potential changes of 0.5 mg/ml mitochondria incubated in experimental buffer were monitored from the dequenching of a 0.3 μM Rhodamine 123 (Molecular Probes, OR) solution in a LS-50B spectrofluorimeter at 25° C., using excitation and emission wavelengths set at 503±2.5 nm and 525±5 nm, respectively.
To determine if the BID α6 14mer (SEQ ID NO:1) induced mitochondrial swelling or release of cytochrome c across the mitochondrial outer membrane, mitochondria at 1 mg/ml were incubated in experimental buffer and, where indicated, 20 μM Ca^2+ and 10 μM 14mer were added. Where noted, mitochondria were preincubated with CsA. […] Mitochondria were incubated with 10 μM 14mer in the presence or in the absence of 1 μM CsA. At the indicated time in minutes, mitochondria were pelleted by centrifugation and cytochrome c in the pellet and in the supernatant was determined.

wt mitochondria [3] = test: Cytochrome b5-dependent NADH oxidation assay; type: biochemical, Balb/cJ mice
Protocol: (d), mitochondria were preincubated for 2 min with 800 pmol CsA×mg protein^−1. (a), no additions. After 15 min, respiratory chain inhibitors were added and after another 2 minutes NADH fluorescence reading started. Arrow, 20 nmol NADH×mg protein^−1. In (e), 200 nmol mersalyl×mg protein was added 1 min before NADH.
In the cytochrome b5-dependent NADH oxidation assay, 1 mg/ml mitochondria were incubated in EB and treated as indicated. 400 pmol CCCP, 2 nmol rotenone and 1 nmol antimycin A×mg protein^−1 were added after the time indicated and the reaction transferred to a cuvette. After 2 min, 10 μM NADH was added and its oxidation monitored as the decrease in NADH fluorescence in a LS50B spectrofluorimeter (Perkin Elmer) set with λex=366 nm and λem=455 nm, with 5 nm slits.

Wt and DKO MEFs = test: TEM morphology of mitochondria in cells after death stimuli; type: cell-based; conditions: 12 hrs after treatment; 2 μM thapsigargin, 2 μg/ml brefeldin A, 1 μg/ml tunicamycin
Protocol: For apoptosis induction, MEFs were plated in 24-well plates at a density of 10^4 cells/well and grown for 24 hrs (Wei et al, 2001). Apoptosis was initiated by 2 μM thapsigargin, 2 μg/ml brefeldin A, 1 μg/ml tunicamycin or by 5 hrs of heat shock (43° C. in a humidified atmosphere of 95% air 5% CO2). Apoptosis was detected by flow cytometric detection of annexin V staining (BD Pharmingen) 24 hrs after the induction of cell death.
Wt and DKO MEFs were treated where indicated with brefeldin A or heat shock. After 12 hrs cells were fixed and imaged. Bar, 200 nm. The insets show 2× magnification of the boxed mitochondria. […] Wt and DKO MEFs were treated with the indicated death stimulus and after 12 hrs cells were fixed, stained and TEMs collected. Morphometric analysis was conducted.

[4] = tested on: calcein loaded mitochondria; test: Release of matrix-entrapped calcein (transient PTP opening); type: biochemical, Balb/cJ mice; conditions: preincubated 3 min with 200 nmol/mg suramin; 320 pmol/mg tBID, 30 min
Protocol: To assess calcein release, mitochondria suspended in IB without BSA were loaded with 10 nmol×mg protein^−1 calcein-AM (Molecular Probes, Eugene, Oreg.) for 20 mins at room temperature in the dark. Following two washes in IB, the calcein loaded mitochondria were resuspended in IB at a final concentration of 10 mg/ml. 0.5 mg/ml calcein loaded mitochondria were incubated in EB and treated as described. After the indicated time, mitochondria were pelleted. Calcein was measured in an LS-50B spectrofluorimeter (Perkin Elmer) with excitation and emission wavelengths set at 488±2.5 nm and 542±2.5 nm, respectively.
After 30 min mitochondria were spun at 14000 g for 3 min at 4 C and the calcein content in the pellet and in the supernatant was determined. […] To determine if a BID α6 mutation variant, BID α6 mutein (SEQ ID NO:7), would inhibit cytochrome c release, His-tag p22 wt BID and the BID α6 mutein were expressed, purified on a Ni^2+ column, and cleaved with caspase 8.
Mitochondria were loaded with calcein and treated with 10 μM BID α6 14mer. Where noted, mitochondria were pretreated with 1 μM CsA. At the indicated time, mitochondria were pelleted by centrifugation and calcein in the pellet and in the supernatant was determined.

mitochondria [5] = test: Cytochrome c release from isolated liver mitochondria (immunoblot densitometry or ELISA); type: biochemical, Balb/cJ mice
Protocol: Mitochondria were isolated from liver of Balb/cJ mice by standard differential centrifugation, and resuspended in isolation buffer (IB) (0.2 M sucrose, 10 mM Tris-MOPS pH 7.4, 0.1 mM EGTA-Tris, 0.1% delipidated BSA).
At the indicated time, mitochondria were pelleted by centrifugation at 12000×g at 4° C. for 3 min, and resuspended in the same volume of EB. Cytochrome c release was determined either by densitometry (Stratagene Eagle Eye II, BioRad) of immunoblots, or by rat/mouse specific ELISA performed on mitochondrial pellet and supernatant diluted 1:20 in PBS containing 0.5% Triton X-100 (R&D systems, MN). Cytochrome c is reported as the percentage of the supernatant over the total (pellet plus supernatant).
For SDS-PAGE, 20 μg of mitochondrial protein was loaded in each lane of a 12% NuPAGE (NoVex, CA) gel. After separation, proteins were transferred onto PVDF membranes (Immobilon-P, Millipore, Calif.) and membranes were probed as indicated with the following primary antibodies: anti-cytochrome c (Pharmingen, CA, 1:1000); anti-BID (1:1500); anti-BAK (Calbiochem, CA, 1:1000). HRPO-conjugated secondary antibodies (CalTag, CA, 1:2000) were visualized by chemiluminescence (Amersham, N.J.).
Mitochondria were incubated with increasing amounts of digitonin to assess how much cytochrome c was released from IMS by the selective solubilization of the OM (Hoppel and Cooper, 107, 367-375, 1968). To monitor interaction of digitonin with the […], uncoupled respiration in the presence of excess exogenous cytochrome c was assessed. Specifically 0.5 mg/ml mitochondria was incubated in EB with the indicated concentration of digitonin. After 5 minutes, mitochondria were centrifuged and cytochrome c content in the resulting pellet and supernatant were determined as described. Uncoupled JO2, uncoupled respiratory rate was recorded in parallel experiments. After 5 minutes of incubation with the indicated concentration of digitonin, mitochondria were treated with 400 pmol CCCP×mg protein-1 in the presence of 10 nmol cytochrome c×mg protein.

mitochondria [6] = test: Adenylate kinase (AK) release from mitochondria; type: biochemical, Balb/cJ mice; conditions: preincubation: 800 pmol CsA × mg protein^−1 or 0.1 μg × mg protein^−1 anti-BAK Ab
Protocol: AK release was determined similar to that described for cytochrome c release. AK was quantified measuring its enzymatic activity by assessing the rate of NADH oxidation at 366 nm using a Beckman DU-10 spectrophotometer. 10 μl of the supernatant or pellet were added to a reaction mixture containing 0.5 mM phosphoenolpyruvate, ATP, AMP, 1 mM NADH, and 60 units of pyruvate kinase and lactate dehydrogenase, in 130 mM KCl, 6 mM MgSO4 and 100 mM Tris-Cl. Final volume 0.1 ml, pH 7.4, 25° C. AK release is reported (as described for cytochrome c) as the percentage of the supernatant over the total (pellet plus supernatant).

Molecule: [Ca+2] [Ca^2+]
- ascorbate-driven respiration (wt mitochondria [1]): increases the ascorbate-driven respiration
- mitochondrial swelling (mitochondria [2]): maximal swelling
- cytochrome b5-dependent NADH oxidation rate (wt mitochondria [3]; 200 nmol Ca^2+ × mg protein^−1): increased the rate of NADH oxidation

Molecule: C[C@H]1CCC/C=C/[C@@H]2C[C@H](O)C[C@H]2[C@H](O)/C=C/C(=O)O1 [brefeldin A]
- mitochondrial morphology in cells (Wt and DKO MEFs): frequent mitochondria with Class II morphology

Molecule: COC(CNC(=O)c1ccccc1OCC(=O)O)[CH2][Hg][OH] (centres unmarked) [mersalyl]
- effect on increases in NADH oxidation (wt mitochondria [3]; 200 nmol mersalyl × mg protein added 1 min before NADH): totally inhibited

Molecule: Cc1ccc(C(=O)Nc2ccc(S(=O)(=O)O)c3cc(S(=O)(=O)O)cc(S(=O)(=O)O)c23)cc1NC(=O)c1cccc(NC(=O)Nc2cccc(C(=O)Nc3cc(C(=O)Nc4ccc(S(=O)(=O)O)c5cc(S(=O)(=O)O)cc(S(=O)(=O)O)c45)ccc3C)c2)c1 [suramin]
- effect on tBID-induced calcein release (transient permeability transition) [4]: blocked tBID-induced transient permeability transition; also recorded: specifically inhibits calcein release induced by tBID

Molecule: C/C=C(/C)C(=O)O[C@H]1C(C)=C2[C@H]([C@@H]1OC(=O)CCCCCCC)[C@@](C)(OC(C)=O)C[C@H](OC(=O)CCC)[C@@]1(O)[C@H]2OC(=O)[C@@]1(C)O [thapsigargin]
- mitochondrial morphology in cells (Wt and DKO MEFs): frequent mitochondria with Class II morphology

Molecule: COC(=O)C[C@H](NC(=O)[C@H](C)NC(=O)[C@@H](NC(=O)OCc1ccccc1)C(C)C)C(=O)CF [zVAD-fmk] (Cbz-Val-Ala-Asp(OMe)-CH2F)
- effect on tBID induced cytochrome c release (mitochondria [5]; preincubation: 800 pmol CsA × mg protein^−1 or 0.1 μg × mg protein^−1 anti-BAK Ab): Neither anti-BCL-XL antibody nor the broad specificity caspase inhibitor zVAD-fmk had any effect
- effect on tBID induced AK release (mitochondria [6]): Neither anti-BCL-XL antibody nor the broad specificity caspase inhibitor zVAD-fmk had any effect

Molecule: NH2-XMLXXXXLLAAAVA-COOH [BID α6 mutein, BID α6 mutation variant where two lysine residues were changed to alanine residues; p7/p15 caspase cleaved]
- cytochrome c released from mitochondria (mitochondria [5]; 1.6 pmol p7/p15 caspase cleaved BID × mg protein^−1): ~20%
- cytochrome c release from mitochondria (mitochondria [5]; 1.6 pmol p7/p15 caspase cleaved BID × mg protein^−1, compared with wt p7/p15 BID): impaired release of cytochrome c; also recorded: does not completely release cytochrome c
- cytochrome c mobilization (cytochrome b5-dependent NADH oxidation) (wt mitochondria [3]; BID α6 mutein compared to wt): cytochrome c had not been mobilized; also recorded: fails to mobilize cytochrome c

Molecule: tunicamycin
- mitochondrial morphology in cells (Wt and DKO MEFs): frequent mitochondria with Class II morphology

B1: myristoylated p7/p15 BID complex: Wt p22 BID cleaved with recombinant caspase 8 into the active p7/p15 BID complex (protein)
p7: MDSEVSNGSGLGAKHITDLLVFGFLQSSGCTRQELEVLGRELPVQAYWEADLEDELQTD
p15: GSQASRSFNQGRIEPDSESQEEIIHNIARHLAQIGDEMDHNIQPTLVRQLAAQFMNGSLSEEDKRNCLAKALDEVKTAFPRDMENDKAMLIMTMLLAKKVASHAPSLLRDVFHTTVNFINQNLFSYVRNLVRNEMD
modifications: left off: small tags and cut ends
- cytochrome c release from mitochondria (mitochondria [5]; 0.32 pmol × mg protein^−1): Complete cytochrome c release
